In patent US10035792B2, “Resorcinol derivative as HSP90 inhibitor” (priority 2015, dated 2018):
One block for each compound: values may come before it.

Legend:
[1] = system: human lung cancer cell line A549; experiment: Tumor cell growth inhibition, SRB staining, A549; type: cell-based; conditions: A549, 72 h
Method in brief: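 Growth inhibition by SRB staining: 4000 cells/well seeded overnight, then compound at 100, 10, 1, 0.1 and 0.01 μM for 72 h in triplicate. Fixed with TCA, OD read at 515 nm. Inhibition rate taken against solvent control; experiment done twice.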

[2] = system: A549 tumor cells; experiment: In vivo efficacy, A549 transplantation tumor in nude mice; conditions: A549 xenograft, 50 mg/kg intravenously twice a week
Experimental: (§1) A549 tumor cells were subcutaneously inoculated in the right armpit of nude mice in 5×10^6 cells/mouse, to form a transplantion tumor. When the volume reached 100-200 mm^3, the animals were randomly divided according to tumor volume, into the negative control group (n=5), the positive control group groups (n=5 in each group), and the experimental groups (n=5 in each group). The experimental groups were respectively injected intravenously with the positive drug Luminespib (50 mg/kg) and compound 1 (50 mg/kg) at different concentrations, twice a week, and the negative control group was administrated an equal amount of solvent simultaneously. The length (A) and width (B) of the tumor were measured twice a week with a vernier caliper, and the tumor volume was calculated according to V=A×B^2/2. Relative tumor volume (RTV) was calculated as follows: RTV=Vt/V0, wherein Vt is the tumor volume at the end of the administration, and V0 is the tumor volume measured before separation and administration. The pharmacodynamic evaluation index of antitumor activity is relative tumor proliferation rate T/C (%), and the calculation formula is: T/C (%)=TRTV/CRTV×100%, wherein TRTV: RTV of the treatment group; CRTV: RTV of the negative control group. Efficacy evaluation criteria: T/C %>60% is inefficient; T/C %≤60% and P<0.05 by statistical treatment is effective. The tumor growth inhibition rate (TGI) was calculated as follows: TGI (%)={[(CVt−CV0)−(TVt−TV0)]/(CVt−CV0)}×100%
(§2) Wherein, CVt is the tumor volume of the control group at the end of the administration; CV0 is the tumor volume of the control group before separation and administration; TVt is the tumor volume of the administration group at the end of the administration; and TV0 is the tumor volume of the administration group before separation and administration. The difference in tumor volume between the administration group and the control group was examined by t-test. At the same time, the body weights of nude mice in each group were weighed twice a week to preliminarily evaluate the toxic side effects of the drug.

[3] = target: HSP90α (Homo sapiens (Human), UniProt P07900); experiment: Fluorescence polarization (FP) HSP90-alpha target binding assay; conditions: fluorescence polarization; read-out: Target binding ability HSP90α FP IC50
Method in brief: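 Displacement of 5 nM GM-BODIPY from 30 nM HSP90 measured by fluorescence polarization (ex 485/em 535 nm). Buffer: 100 mM Tris-Cl pH 7.4, 20 mM KCl, 6 mM MgCl2, 5 μg/mL BSA. Incubation 12–16 h at 4 °C. Percent inhibition from mP relative to compound-free and tracer-only controls.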

[4] = system: human colon cancer cell line HCT116; experiment: Tumor cell growth inhibition, SRB staining, HCT116; type: cell-based; conditions: HCT-116, HCT116, 72 h
Experimental: The growth inhibition assay of tumor cells was detected by sulforhodamine B (SRB) staining method. The specific steps were as follows: inoculating human colon cancer cell line HCT116 and human lung cancer cell line A549 (purchased from American Type Culture Collection, ATCC) at the logarithmic growth phase into a 96-well micro culture plate at an appropriate concentration of 4000 cells/well, 100 μL for each well; after culturing overnight, adding with the compound at different concentrations (100, 10, 1, 0.1, 0.01 μM) to react for 72 h, wherein triplicate wells were set up for each concentration, and solvent control wells with the corresponding concentration and zero wells without cells were also set up. After the completion of the reaction, the culture medium was removed from the adherent cells, the later was added with 10% (w/v) trichloroacetic acid (100 μL/well) at 4° C. to fix for 1 h, and then washed five times with distilled water. After drying at room temperature, 100 μL of SRB solution (4 mg/mL, dissolved in 1% glacial acetic acid) was added into each well, followed by incubation and staining for 15 min at room temperature. The uncombined SRB was removed by washing five times with 1% glacial acetic acid. After drying at room temperature, 100 μL of 10 mM Tris solution was added into each well, and the optical density (OD) at 515 nm was measured by a […] microplate reader. The inhibition rate of the drug to tumor cell growth was calculated according to the following equation: Inhibition rate (%)=(OD of control well-OD of drug well)/OD of control well×100%. The experiment was repeated twice.

[5] = in vivo; set-up: species or system SD rats; conditions: male, SD, rat, iv, 1 mg/kg
Experimental: SD rats were used as the subject animals. The drug concentrations in plasma, lung and breast tissue were measured by LC/MS/MS method at different times after the compound of Example 67 was intravenously injected at the tails of rats. The tissue distribution of the compounds of the present invention in rats was studied and their pharmacokinetic characteristics were evaluated. 2.1 Experimental Drugs: Luminespib, Ganetespib and the compound of Example 67. Healthy adult male SD rats, 100-200 g, 9 rats in total, purchased from Shanghai Slack Laboratory Animal Co., Ltd. The appropriate amounts of the samples were weighed. All of Luminespib, Ganetespib and the compound 67 of the present invention were formulated into clear solutions in […] in 10% DMSO/14% Cremophor RH40/76% D5W, for intravenous injection. 9 SD male rats were divided into three groups, three rats in each group. After normal feeding, administrations were carried out in tails by intravenous injection at the dose of 1 mg/kg. Samples were collected from blood, lung and breast tissues in three group rats at 0.5 h, 6 h and 24 h after administration. The blood samples were centrifuged at 4° C., 3000 rpm for 15 min within half an hour after collection, to separate and obtain plasma samples. The resulting plasma samples were placed in polypropylene tubes and stored at −80° C. for LC/MS/MS analysis. After the collection of the blood samples, the animals were sacrificed with CO2, followed by collection of the tissue samples. Each of the tissue samples was washed twice with cold deionized water and adhered to filter papers. Each of the tissue samples was then homogenized several times in MeOH/15 mM PBS (1:2) (5 mL MeOH/15 mM PBS (1:2) per gram of tissue, with a dilution factor of 6) to ensure the formation of homogeneous phase. The whole process was carried out below freezing point temperature. The homogenized samples were quickly frozen by using dry ice and stored at −80° C. for bioanalysis. The contents of the test compound in rat plasma, lung and breast tissue after injection administration were measured by LC/MS/MS.

[6] = system: BT-474 tumor cells; experiment: In vivo efficacy, BT-474 breast cancer transplantation tumor in nude mice; conditions: BT-474 xenograft
Experimental: as §1, with “BT-474 tumor” for “A549 tumor”, “group (n=6),” for “group (n=5),”, “groups (n=6” for “groups (n=5”, “drug Ganetespib (20” for “drug Luminespib (50”, “compound 67 (10 mg/kg and 20” for “compound 1 (50”, “concentrations, three times” for “concentrations, twice”
as §2

[7] = concentration in breast tissue (nM)
[8] = 10 mpk intravenously three times a week
[9] = 20 mpk intravenously three times a week

EC50 [1]: < 20 nM
IC50 [3]: < 20 nM
EC50 [4]: < 20 nM
SMILES: CCNC(=O)c1noc(-c2cc(C(C)C)c(O)cc2O)c1-c1ccc2c(c1)CCN(C)C2 [Example 1, 5-(2,4-dihydroxyl-5-isopropylphenyl)-N-ethyl-4-(2-methyl-1,2,3,4-tetrahydroisoquinolin-6-yl)isoxazole-3-carboxamide]
TGI (%) Day 7 [2]: 20%
TGI (%) Day 11 [2]: 40%
TGI (%) Day 14 (stopping administration) [2]: 63%
TGI (%) Day 17 [2]: 71%
TGI (%) Day 28 [2]: 60%

IC50 [3]: 20 to 100 nM
EC50 [4]: 20 to 100 nM
SMILES: CCNC(=O)c1noc(-c2cc(C(C)C)c(O)cc2O)c1-c1ccc2c(c1)N(C)CCC2 [Example 2, 5-(2,4-dihydroxyl-5-isopropylphenyl)-N-ethyl-4-(1-methyl-1,2,3,4-tetrahydroquinolin-7-yl)isoxazole-3-carboxamide]

IC50 [3]: 20 to 100 nM
EC50 [4]: 20 to 100 nM
SMILES: CCNC(=O)c1noc(-c2cc(C(C)C)c(O)cc2O)c1-c1ccc2c(c1)CCCN2C [Example 3, 5-(2,4-dihydroxyl-5-isopropylphenyl)-N-ethyl-4-(1-methyl-1,2,3,4-tetrahydroquinolin-6-yl)isoxazole-3-carboxamide]

IC50 [3]: > 100 nM
EC50 [4]: > 100 nM
SMILES: CCNC(=O)c1nsc(-c2cc(C(C)C)c(O)cc2O)c1-c1ccc2c(c1)CCN(C)C2 [Example 13, 5-(2,4-dihydroxyl-5-isopropyl-phenyl)-N-ethyl-4-(2-methyl-1,2,3,4-tetrahydroisoquinolin-6-yl)isothiazole-3-carboxamide]

IC50 [3]: < 20 nM
EC50 [4]: < 20 nM
SMILES: CCNC(=O)c1noc(-c2cc(C(C)C)c(O)cc2O)c1C1=CC2CN(C)CC2C1 (stereo not drawn) [Example 14, 5-(2,4-dihydroxyl-5-isopropyl-phenyl)-N-ethyl-4-(2-methyl-1,2,3,3a,4,6a-hexahydrocyclopenta[c]pyrrol-5-yl)isoxazole-3-carboxamide]

EC50 [1]: < 20 nM
breast tissue exposure dose [5]: 7226 nM·h
plasma exposure dose [5]: 415 nM·h
pulmonary exposure dose [5]: 30933 nM·h
concentration at 0.5 h [5, 7]: 395 nM
concentration at 6 h [5, 7]: 376 nM
concentration at 24 h [5, 7]: 199 nM
concentration at 0.5 h ([5]; plasma concentration (nM)): 115 nM
concentration at 6 h ([5]; plasma concentration (nM)): 9.98 nM
concentration at 24 h ([5]; plasma concentration (nM)): 3.72 nM
concentration at 0.5 h ([5]; pulmonary concentration (nM)): 3040 nM
concentration at 6 h ([5]; pulmonary concentration (nM)): 1530 nM
concentration at 24 h ([5]; pulmonary concentration (nM)): 613 nM
IC50 [3]: < 20 nM
SMILES: CCNC(=O)c1onc(-c2cc(C(C)C)c(O)cc2O)c1-c1ccc2c(c1)CCNC2 [Example 67, 3-(2,4-dihydroxyl-5-isopropylphenyl)-N-ethyl-4-(1,2,3,4-tetrahydroisoquinolin-6-yl)isoxazole-5-carboxamide]
TGI (%) Day 21 [6, 8]: 137%
TGI (%) Day 35 [6, 8]: 120%
TGI (%) Day 21 [6, 9]: 135%
TGI (%) Day 35 [6, 9]: 129%

concentration at 0.5 h [5, 7]: 352 nM
concentration at 6 h [5, 7]: 70.9 nM
concentration at 0.5 h ([5]; plasma concentration (nM)): 267 nM
concentration at 6 h ([5]; plasma concentration (nM)): 4.46 nM
concentration at 0.5 h ([5]; pulmonary concentration (nM)): 1010 nM
concentration at 6 h ([5]; pulmonary concentration (nM)): 101 nM
SMILES: CC(C)c1cc(-c2n[nH]c(=O)n2-c2ccc3c(ccn3C)c2)c(O)cc1O [Ganetespib]
TGI (%) Day 21 [6, 9]: 124%
TGI (%) Day 35 [6, 9]: 108%

pulmonary exposure dose [5]: 5284 nM·h
concentration at 0.5 h [5, 7]: 104 nM
concentration at 6 h [5, 7]: 61.4 nM
concentration at 0.5 h ([5]; plasma concentration (nM)): 67.1 nM
concentration at 0.5 h ([5]; pulmonary concentration (nM)): 1000 nM
concentration at 6 h ([5]; pulmonary concentration (nM)): 257 nM
concentration at 24 h ([5]; pulmonary concentration (nM)): 35.9 nM
SMILES: CCNC(=O)c1noc(-c2cc(C(C)C)c(O)cc2O)c1-c1ccc(CN2CCOCC2)cc1 [Luminespib]
TGI (%) Day 7 [2]: 18%
TGI (%) Day 11 [2]: 34%
TGI (%) Day 14 (stopping administration) [2]: 49%
TGI (%) Day 17 [2]: 52%
TGI (%) Day 28 [2]: 35%
